Experimental data published in patent US8426673B2, “Pathological animal model for pelvic pain syndrome” (Astellas Pharma, Inc., priority 2008, dated 2013).
Read-outs that look alike come from different tables or passages of the source.

What was measured:
[1] = tested on: Male Wistar rats; test: Intra testicular injection of acetic acid-induced characteristic pain or discomfort behavior; type: in vivo, rat
Protocol: (§1) Male Wistar rats aged 5 to 12 weeks (Charles River Japan) were used. Positions of the testes were confirmed by keeping the waist of each rat from the dorsal side, and a stimulative substance at a volume of 1 ml/kg was administered into the right and left testes using a syringe equipped with a 27 G needle.
When the intra-testicular administration is achieved, the testes are swelled and become hard in touch. The individuals whose testes were not swelled after the injection were judged as failure in the injection and excluded from further analysis. In addition, dye mixed stimulative substance was injected into the testes and the distribution of the dye within the testes was checked after completion of the experiments to verify whether a stimulative substance was successfully administered or not.
All data was presented as mean and standard error of the mean. The unpaired parametric t-test was used to compare the two group. The parametric Dunnett's multiple comparison test was performed to compare the three groups or more. P<0.05 was considered statistically significant.
(1) Dose-dependency of acetic acid: A rat was placed individually in a clear, round, plastic container (Natsume, Japan) for observation immediately after the intra testicular injection of 0.3, 1 and 3% acetic acid aqueous solutions or distilled water. […] Among these behaviors, the number of behaviors 1) to 3), frequently observed behavior, was counted from 5 to 20 minutes after the intra testicular injection of acetic acid.
(2) Effects of indomethacin: Indomethacin at 5 mg/3 mL/kg (Sigma-Aldrich Japan, Japan) or 0.1% Na2CO3 aqueous solution (vehicle solution) was orally administered 1 hour before the intra testicular injection of 1% acetic acid. Number of the characteristic pain or discomfort behavior was measured in the same manner as described in the above section.

[2] = tested on: Male Wistar rats; conditions: 1% acetic acid 1 ml/kg intra testicular; 30 to 60 min after injection; distilled water group 97±8%; p<0.05
Text: All data was presented as mean and standard error of the mean. The unpaired parametric t-test was used to compare the two group. P<0.05 was considered statistically significant.

[3] = tested on: Male Wistar rats; test: Intra testicular injection of NGF-induced pain or discomfort behavior; type: in vivo, rat; conditions: 10 to 30 minutes after injection, p<0.01
Protocol: as §1
When the intra-testicular administration is achieved, the testes are swelled and become hard in touch. The individuals whose testes were not swelled after the injection were judged as failure in the injection and excluded from further analysis. […]
(1) Dose dependency of NGF: Mouse NGF 2.5S (Alomone Labs, Ltd., Israel) at […] or saline (vehicle solution) was administered to both of the testes in rat. […] Thus, the total time the behavior of 1) was measured by a stopwatch from 10 to 30 minutes after the intra testicular injection.
(2) Effects of morphine: Morphine (Takeda Chemical Industry, Ltd., Japan) at 5 mg/kg or saline (vehicle solution) was subcutaneously administered 30 minutes before the intra testicular injection of 100 μg/kg NGF. Total time of the above mentioned characteristic pain or discomfort behavior was measured from 10 to 30 minutes after the intra testicular injection of NGF. […]

[4] = tested on: Male Wistar rats; test: Effects of intra testicular injection of NGF on bladder capacity (conscious cystometry); type: in vivo, rat; conditions: 100 μg/kg NGF (1 ml/kg) intra testicular; 30 to 60 min after injection; saline group 104±14%; p<0.01
Protocol: P<0.05 was considered statistically significant.
After that, “pre bladder capacity” was recorded for 1 hr. […] Physiological saline (1 ml/kg) or 100 μg/kg NGF (1 ml/kg) were injected into the testes. […] The bladder capacity in the saline treated group was 104±14%, thus showing no significant change. […] This change was significant in comparison with that of physiological saline treated group (FIG. 6).

CC(=O)O [acetic acid]
characteristic pain or discomfort behaviors ([1]; 0.3% acetic acid aqueous solution, 1 ml/kg intra testicular, 5 to 20 minutes after injection, rat): No characteristic pain or discomfort behaviors was observed | number of pain or discomfort behaviors ([1]; 1% acetic acid aqueous solution, 1 ml/kg intra testicular; behaviors 1) to 3) counted 5 to 20 minutes after injection, rat): 16±2 times | number of pain or discomfort behaviors ([1]; 3% acetic acid aqueous solution, 1 ml/kg intra testicular; behaviors 1) to 3) counted 5 to 20 minutes after injection, rat): 19±6 times | bladder capacity, percent of the pre bladder capacity [2]: 53±12%

COc1ccc2c(c1)c(CC(=O)O)c(C)n2C(=O)c1ccc(Cl)cc1 [indomethacin, Indomethacin]
number of the characteristic pain or discomfort behaviors ([1]; 5 mg/3 mL/kg orally 1 hour before intra testicular 1% acetic acid, counted 5 to 20 minutes, vehicle group 19±6 times, p<0.01): 3±2 times

CN1CC[C@]23c4c5ccc(O)c4O[C@H]2[C@@H](O)C=C[C@H]3[C@H]1C5 [morphine, Morphine]
total time of the characteristic pain or discomfort behavior ([3]; 5 mg/kg subcutaneously 30 minutes before intra testicular 100 μg/kg NGF, vehicle group 167±31 seconds): 9 ± 4 s

B1: NGF: Mouse NGF 2.5S (Alomone Labs), nerve growth factor used as stimulative substance injected into the testes (protein, UniProt P01139 122-241, looked up)
Beta-nerve growth factor: SSTHPVFHMGEFSVCDSVSVWVGDKTTATDIKGKEVTVLAEVNINNSVFRQYFFETKCRASNPVESGCRGIDSKHWNSYCTTTHTFVKALTTDEKQAAWRFIRIDTACVCVLSRKATRRG
total time of the characteristic pain or discomfort behavior (scratching the body vigorously with hindlimbs) ([3]; 100 μg/ml/kg NGF intra testicular, vehicle group 1.0±0.4 second): 155 ± 29 s | bladder capacity, percent of the pre bladder capacity [4]: 29±9%
